Where “and” joins values, the source holds several entries; their conditions need not be identical. Equal values may be shown once. Read-outs that look alike come from different tables or passages of the source. Blank lines part the entries; values can stand above or below the compound they belong to.
How the values were obtained:
OATP = settings: cited from earlier work
[1] = Population PK model of rosuvastatin plasma and urine data with/without rifampicin; assay type: in vivo, human
Procedure: (§1) Individual plasma and urine data were obtained from a previous study in 12 healthy male subjects.6 The study was split into three occasions (OCC1–3) with a 7‐day washout period between OCC1 and 2 and OCC2 and 3. During each occasion, baseline CPI urine and plasma samples were collected (Figure S2). A single 600‐mg oral dose of RIF and a single 5‐mg oral dose of RSV were administered to the volunteers in OCC1 and OCC2, respectively. Finally, in OCC3 the same respective doses of RIF and RSV were coadministered to healthy volunteers. Plasma (RIF, RSV, and CPI) were collected at predefined timepoints over the 24‐h period following administration of RIF and/or RSV. Urine samples were collected over one time interval (−7 to 0 h) for the pretreatment sample (CPI monitored) and two subsequent intervals (0–7 h and 7–24 h) for posttreatment samples of CPI and RSV. The total number of plasma samples for modeling purposes were 276 (OCC1 = 144, OCC3 = 132), 420 (OCC1 = 144, OCC2 = 144, OCC3 = 132), and 264 (OCC2 = 132, OCC3 = 132) for RIF, CPI, and RSV, respectively, whereas the total number of urine samples were 102 (pretreatment = 34, posttreatment = 68) and 44 for CPI and RSV, respectively. No subjects enrolled in the clinical study had OATP1B1*5 or OATP1B1*15 mutations, associated with altered OATP1B1 activity.
(§2) Population PK models were developed sequentially for analysis of RIF, CPI, and RSV plasma and urine data using nonlinear mixed‐effects modeling software, NONMEM, with first‐order conditional estimation method.32 Statistical analysis, GOF plots, and other graphical analysis were conducted in MATLAB. The structural models for RIF and RSV (Supplementary Material) were selected based on population PK models available in the literature.34, 35 An exponential model was used to describe interindividual variability random‐effects parameters and IOV was evaluated for the model parameters; occasions were defined as periods of different visits following recruitment or washout periods. Covariates and random‐effects parameters (IIV and IOV) were retained in the models when there was a significant change in objective function and improvement in GOF plots. The incorporation of IIV and IOV in the models is shown in Equation 2: (2) θik=θ⋅e^ηi+κik where θ ik is the parameter for i^th individual on k^th occasion, θ is the population (typical individual) parameter, η i is the parameter that describes the deviation of the i^th individual parameter from the population (IIV), and k ik the parameter that describes the deviation of the i^th individual from the population in addition to η ik at the k^th occasion (IOV). Both random effect parameters (η ik and k ik) are assumed to be randomly distributed with a mean of zero and the variances are estimated during analysis. Proportional or additive or combination of proportional and additive residual error models were investigated for the residuals.
Based on the available plasma and urine data, a two compartment first order absorption and elimination model was used to describe the PK of RSV in the subjects. The model was parameterised using [picture] , volume of distribution of central ( [picture] ) and peripheral compartments ( [picture] ), inter-compartmental clearance ( [picture] ), biliary ( [picture] ) and renal ( [picture] ) clearance parameters. Analogous to CPI, inhibition of [picture] by RIF was incorporated in the rate of change of RSV plasma concentration, whereas it was assumed that RIF has no effect on RSV renal elimination (Eq 2). The rate of change of RSV amount in urine over time is shown in Eq3.
where [picture] and [picture] are RSV concentrations in central (plasma) and peripheral compartments, [picture] is the amount in depot compartment, [picture] is RSV amount in the urine and [picture] is RIF transporter inhibition constant using RSV as a probe. […]

[2] = Analysis of individual clinical CPI and rosuvastatin data (baseline, AUCR, fT); assay type: in vivo, human; settings: for mean fraction eliminated via transporters (fT): from AUC with/without RIF (Equation 1)
Procedure: as §1
Variability in baseline CPI plasma concentration between the three occasions was assessed and a one‐way analysis of variance (ANOVA) test was used to determine any significant differences. CPI and RSV plasma concentrations in the presence/absence of RIF were used to calculate the area under the curve (AUC) using the trapezoid function in MATLAB (MathWorks, Natick, MA, 2015a). Subsequently, the fold change in RSV and CPI AUC of each individual and the fraction eliminated by transporters (fT) for each probe was calculated (Equation 1). (1) fT=1−AUC(control)/AUC(+inhibitor)

[3] = Population PK (turnover) model of CPI plasma and urine data with/without rifampicin; assay type: in vivo, human
Procedure: as §1, §2
The plasma concentrations of the endogenous biomarker CPI were described using a turnover model (Equation 3).36 Simultaneous fitting of individual CPI plasma and urine data in the presence and absence of RIF was performed. In the final model, RIF inhibited biliary elimination (CL b,CPI) of CPI, whereas its renal clearance (CL R,CPI) and k syn were not affected. The rate of change of CPI plasma concentration under baseline and RIF condition is shown in Equations 3 and 4, respectively, whereas change in CPI amount in urine over time is shown in Equation 5. (3) dCCPI/dt=[ksyn−CLb,CPI⋅CCPI−CLR,CPI⋅CCPI]⋅1/VCPI (4) dCCPI/dt=[ksyn−CLb,CPI⋅CCPI/1+CRIF/KiCPI−CLR,CPI⋅CCPI]⋅1/VCPI (5) dUCPI/dt=CLR,CPI⋅CCPI where C CPI is its plasma concentration, U CPI is the CPI amount in urine, t is time, k syn is the zero‐order synthesis rate, Ki CPI is RIF transporter inhibition constant using CPI as a probe, V CPI is the volume of distribution of CPI and C RIF is RIF plasma concentration (linked to RIF model). […]

Compound: CCC(C)n1ncn(-c2ccc(N3CCN(c4ccc(OCC5COC(Cn6cncn6)(c6ccc(Cl)cc6Cl)O5)cc4)CC3)cc2)c1=O (stereo not shown) [Itraconazole]
Fold Change in AUC of rosuvastatin (OATP; inhibitor 200 mg, rosuvastatin 0.025 mg, ref (15)): 1.78 fold

Compound: C=C[C@@H]1C[C@]1(NC(=O)[C@@H]1C[C@@H](Oc2ncc(OC)c3ccc(Cl)cc23)CN1C(=O)[C@@H](NC(=O)OC(C)(C)C)C(C)(C)C)C(=O)NS(=O)(=O)C1CC1 [Asunaprevir]
Fold Change in AUC of rosuvastatin (OATP; inhibitor 200 mg, rosuvastatin 10 mg, ref (14)): 1.41 fold

Compound: CC(C)c1nc(N(C)S(C)(=O)=O)nc(-c2ccc(F)cc2)c1/C=C/[C@@H](O)C[C@@H](O)CC(=O)O [RSV, rosuvastatin]
QRSV, population estimate (SE%) ([1]; RSV alone): 45.3 (19) L/h
V1RSV, population estimate (SE%) ([1]; RSV alone): 430 (12) L
V2RSV, population estimate (SE%) ([1]; RSV alone): 865 (37) L
QRSV (RIF), population estimate (SE%) ([1]; co-administered with RIF): 5.03 (18) L/h
V1RSV (RIF), population estimate (SE%) ([1]; co-administered with RIF): 2.98 (50) L
V2RSV (RIF), population estimate (SE%) ([1]; co-administered with RIF): 128 (42) L
contribution of biliary clearance to elimination ([1]; in vivo): 94%
reduction of V1RSV in the presence of RIF ([1]; in vivo): > 90%
CL renal ([1]; male, human, in vivo, 5 mg): 141 mL/min
CLb,RSV, population estimate (SE%) ([1]; male, human, in vivo, 5 mg): 124 (11) L/h
kaRSV, population estimate (SE%) ([1]; single 5-mg oral dose): 0.287 (9) h^−1
change in Cmax (fold increase) following RIF ([2]; RIF 600 mg co-administered): 13.2 fold
range of estimated individual fT ([2]; from AUC with/without RIF): 0.66–0.88
mean fraction eliminated via transporters (fT) [2]: 0.79

maximal contribution of biliary clearance to total clearance ([3]; basal conditions): > 85% and 88%
VCPI, population estimate (SE%) ([3]; baseline): 6.59 (12) L
ksyn (zero-order synthesis rate), population estimate (SE%) ([3]; endogenous CPI): 12.7 (6) nM/h
VCPI (RIF), population estimate (SE%) ([3]; in the presence of RIF): 3.4 (13) L
CLR,CPI (renal clearance), population estimate (SE%) ([3]; in vivo): 1.64 (6) L/h
reduction of estimated VCPI in the presence of RIF ([3]; in vivo): ~50%
mean fraction eliminated via transporters (fT) [2]: 0.76
Compound: coproporphyrin I [CPI]

Compound: COc1ccc2c(O[C@@H]3C[C@H]4C(=O)N[C@]5(C(=O)NS(=O)(=O)C6CC6)C[C@H]5/C=C\CCCCN(C)C(=O)[C@@H]4C3)cc(-c3nc(C(C)C)cs3)nc2c1C [Simeprevir]
Fold Change in AUC of rosuvastatin (OATP; inhibitor 150 mg, rosuvastatin 10 mg, ref (19)): 2.8 fold

Compound: C=C[C@@H]1C[C@]1(NC(=O)[C@@H]1C[C@@H]2CN1C(=O)[C@H](C(C)(C)C)NC(=O)O[C@@H]1C[C@H]1CCCCCc1nc3ccc(OC)cc3nc1O2)C(=O)NS(=O)(=O)C1CC1.O [Grazoprevir]
Fold Change in AUC of rosuvastatin (OATP; inhibitor 200 mg, rosuvastatin 10 mg, ref (16)): 1.59 fold

Compound: CC[C@H]1OC(=O)[C@H](C)[C@@H](O[C@H]2C[C@@](C)(OC)[C@@H](O)[C@H](C)O2)[C@H](C)[C@@H](O[C@@H]2O[C@H](C)C[C@H](N(C)C)[C@H]2O)[C@](C)(OC)C[C@@H](C)C(=O)[C@H](C)[C@@H](O)[C@]1(C)O [Clarithromycin]
Fold Change in AUC of rosuvastatin (OATP; inhibitor 500 mg, rosuvastatin 0.025 mg, ref (15)): 1.56 fold

Compound: Cc1cnc(C(=O)N[C@H]2CCCCC/C=C\[C@@H]3C[C@@]3(C(=O)NS(=O)(=O)C3CC3)NC(=O)[C@@H]3C[C@@H](Oc4nc5ccccc5c5ccccc45)CN3C2=O)cn1 [Paritaprevir]
Fold Change in AUC of rosuvastatin (OATP; inhibitor 150 mg, rosuvastatin 10 mg, ref (17)): 2.6 fold

Compound: COC[C@H]1C[C@@H](c2ncc(-c3ccc4c(c3)COc3cc5c(ccc6nc([C@@H]7CC[C@H](C)N7C(=O)[C@@H](NC(=O)OC)C(C)C)[nH]c65)cc3-4)[nH]2)N(C(=O)[C@H](NC(=O)OC)c2ccccc2)C1 [Velpatasvir]
Fold Change in AUC of rosuvastatin (OATP; inhibitor 100 mg, rosuvastatin 10 mg, ref (18)): 2.69 fold
